These results are taken from article PMC12391391, “The balance between B55α and Greatwall expression levels predicts sensitivity to Greatwall inhibition in cancer cells” (Nature Communications, 2025).

In data set [1] the target is T1, Greatwall kinase (GWL, MASTL) (Homo sapiens, UniProt Q96GX5, K72M).
T1 construct: full-length
T1 sequence (Q96GX5 1-879 K72M): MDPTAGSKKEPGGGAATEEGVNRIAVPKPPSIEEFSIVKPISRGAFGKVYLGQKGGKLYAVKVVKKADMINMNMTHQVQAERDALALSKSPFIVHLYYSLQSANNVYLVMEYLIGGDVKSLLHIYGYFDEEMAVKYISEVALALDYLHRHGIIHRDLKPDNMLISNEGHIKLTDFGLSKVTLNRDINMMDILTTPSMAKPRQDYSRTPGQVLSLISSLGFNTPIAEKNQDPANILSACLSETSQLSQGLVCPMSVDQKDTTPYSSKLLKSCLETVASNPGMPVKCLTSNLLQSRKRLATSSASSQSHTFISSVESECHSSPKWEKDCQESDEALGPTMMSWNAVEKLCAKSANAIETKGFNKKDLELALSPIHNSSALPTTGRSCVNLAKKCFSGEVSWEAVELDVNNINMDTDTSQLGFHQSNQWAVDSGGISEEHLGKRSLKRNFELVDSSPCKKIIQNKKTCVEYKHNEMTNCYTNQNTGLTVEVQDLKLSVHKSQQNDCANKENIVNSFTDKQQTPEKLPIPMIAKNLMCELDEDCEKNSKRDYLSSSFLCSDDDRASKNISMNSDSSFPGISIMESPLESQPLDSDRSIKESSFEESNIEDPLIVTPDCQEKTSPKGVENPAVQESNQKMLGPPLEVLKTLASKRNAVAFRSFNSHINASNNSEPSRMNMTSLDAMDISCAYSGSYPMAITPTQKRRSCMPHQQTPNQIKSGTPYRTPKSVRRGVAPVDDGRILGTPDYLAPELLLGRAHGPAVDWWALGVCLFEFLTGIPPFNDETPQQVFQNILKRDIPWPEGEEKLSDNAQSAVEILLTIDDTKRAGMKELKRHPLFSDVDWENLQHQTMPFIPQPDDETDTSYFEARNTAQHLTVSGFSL
The data set is described as follows: HTRF kinase assay with purified full-length GWL (K72M) and ENSA. In kind it is biochemical.

A further data set is described as follows: physchem. Also noted: aqueous solubility at pH 7.0. The following applies: pH 7.0; buffer pH 7.0; aqueous buffer pH 7.0. From the text: (§1) We selected compound 1 as the lead exemplar of cluster 3 and leveraged it as a foundation for subsequent drug development (Fig. 1a). Structure-activity relationship studies and pharmacokinetic profiling produced several derivative molecules, of which compound 21 provided the best combination of outstanding inhibitory potential, low clearance in mouse microsomes and acceptable solubility (Fig. 1a–c and Supplementary Tables 1–4). […] This assessment was supported by structural modelling of the interaction between compound 21 and the active site of GWL (Fig. 1d). In further support of its GWL-targeting properties, compound 21 diminished the phosphorylation of the canonical GWL substrate ENSA(S67) in Xenopus laevis cytostatic factor (CSF) egg extract (Supplementary Fig. 2). Having satisfied the criteria of prospective GWL inhibitor, the racemic compound 21 was registered as UOS-00054604 and, for the remainder of the manuscript, is referred to as C-604.

Another data set can be described thus: in vitro. Also noted: intrinsic clearance in human microsomes. The following applies: liver microsomes; human liver microsomes; read-out: Cl (human).
From the text: as §1

In another data set the target is T2, STK17A (Homo sapiens, UniProt Q9UEE5).
T2 sequence (Q9UEE5 1-414): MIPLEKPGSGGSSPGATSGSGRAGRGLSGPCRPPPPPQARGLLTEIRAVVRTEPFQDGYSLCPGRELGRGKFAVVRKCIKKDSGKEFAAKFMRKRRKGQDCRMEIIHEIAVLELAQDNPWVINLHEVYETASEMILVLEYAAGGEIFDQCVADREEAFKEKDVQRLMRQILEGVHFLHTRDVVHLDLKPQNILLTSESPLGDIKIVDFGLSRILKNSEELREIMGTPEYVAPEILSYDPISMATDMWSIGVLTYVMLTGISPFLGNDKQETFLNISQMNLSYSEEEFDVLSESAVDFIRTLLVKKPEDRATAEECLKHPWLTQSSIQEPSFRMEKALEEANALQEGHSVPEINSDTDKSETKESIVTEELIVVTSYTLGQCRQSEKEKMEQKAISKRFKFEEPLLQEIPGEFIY
The data set is described as follows: biochemical. Also noted: LanthaScreen kinase activity assay (Thermo Fisher), dose-dependent inhibition by C-604. The conditions noted are these: read-out: IC50 (C-604). As for the experimental part:
(§2) To identify potential C-604 off-targets, we utilised a commercially available off-target screening service (Thermo Fisher Scientific) to assess the impact of C-604 on the in vitro activity of 100 human kinases (Supplementary Fig. 8a). Out of 100 tested targets, C-604 (1 µM) inhibited GWL (inhibition 95%) and an additional 10 kinases (inhibition ≥ 80%). […] The in vitro off-target effects of compound C-604 were determined by assessing its inhibitory potential in a panel of 100 human kinases using the LanthaScreen Kinase Activity Assay (Thermo Fisher Scientific).

A further data set deals with GSK3B (Homo sapiens, UniProt P49841). Kind of data set: biochemical. The following applies: read-out: IC50 (C-604). Also noted: LanthaScreen kinase activity assay (Thermo Fisher), dose-dependent inhibition by C-604. As for the experimental part:
as §2

For the next data set, the target named is HIPK2 (Homo sapiens, UniProt Q9H2X6). The data set is described as follows: biochemical. Further details: LanthaScreen kinase activity assay (Thermo Fisher), dose-dependent inhibition by C-604. The following applies: read-out: IC50 (C-604). As for the experimental part:
as §2

GSK3B, sequence (P49841 whole entry): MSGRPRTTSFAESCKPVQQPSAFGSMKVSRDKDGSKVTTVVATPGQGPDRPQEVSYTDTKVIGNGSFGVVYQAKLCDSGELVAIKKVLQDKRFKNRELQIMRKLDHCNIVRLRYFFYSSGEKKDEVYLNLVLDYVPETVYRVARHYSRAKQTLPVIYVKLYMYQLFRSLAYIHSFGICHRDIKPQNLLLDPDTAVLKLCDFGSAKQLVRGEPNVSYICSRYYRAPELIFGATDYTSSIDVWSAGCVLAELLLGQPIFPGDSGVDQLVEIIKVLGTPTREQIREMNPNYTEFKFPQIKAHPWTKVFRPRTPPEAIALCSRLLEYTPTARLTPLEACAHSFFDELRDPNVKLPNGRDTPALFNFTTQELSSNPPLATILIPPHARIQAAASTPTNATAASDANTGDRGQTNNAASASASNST
HIPK2, sequence (Q9H2X6 whole entry): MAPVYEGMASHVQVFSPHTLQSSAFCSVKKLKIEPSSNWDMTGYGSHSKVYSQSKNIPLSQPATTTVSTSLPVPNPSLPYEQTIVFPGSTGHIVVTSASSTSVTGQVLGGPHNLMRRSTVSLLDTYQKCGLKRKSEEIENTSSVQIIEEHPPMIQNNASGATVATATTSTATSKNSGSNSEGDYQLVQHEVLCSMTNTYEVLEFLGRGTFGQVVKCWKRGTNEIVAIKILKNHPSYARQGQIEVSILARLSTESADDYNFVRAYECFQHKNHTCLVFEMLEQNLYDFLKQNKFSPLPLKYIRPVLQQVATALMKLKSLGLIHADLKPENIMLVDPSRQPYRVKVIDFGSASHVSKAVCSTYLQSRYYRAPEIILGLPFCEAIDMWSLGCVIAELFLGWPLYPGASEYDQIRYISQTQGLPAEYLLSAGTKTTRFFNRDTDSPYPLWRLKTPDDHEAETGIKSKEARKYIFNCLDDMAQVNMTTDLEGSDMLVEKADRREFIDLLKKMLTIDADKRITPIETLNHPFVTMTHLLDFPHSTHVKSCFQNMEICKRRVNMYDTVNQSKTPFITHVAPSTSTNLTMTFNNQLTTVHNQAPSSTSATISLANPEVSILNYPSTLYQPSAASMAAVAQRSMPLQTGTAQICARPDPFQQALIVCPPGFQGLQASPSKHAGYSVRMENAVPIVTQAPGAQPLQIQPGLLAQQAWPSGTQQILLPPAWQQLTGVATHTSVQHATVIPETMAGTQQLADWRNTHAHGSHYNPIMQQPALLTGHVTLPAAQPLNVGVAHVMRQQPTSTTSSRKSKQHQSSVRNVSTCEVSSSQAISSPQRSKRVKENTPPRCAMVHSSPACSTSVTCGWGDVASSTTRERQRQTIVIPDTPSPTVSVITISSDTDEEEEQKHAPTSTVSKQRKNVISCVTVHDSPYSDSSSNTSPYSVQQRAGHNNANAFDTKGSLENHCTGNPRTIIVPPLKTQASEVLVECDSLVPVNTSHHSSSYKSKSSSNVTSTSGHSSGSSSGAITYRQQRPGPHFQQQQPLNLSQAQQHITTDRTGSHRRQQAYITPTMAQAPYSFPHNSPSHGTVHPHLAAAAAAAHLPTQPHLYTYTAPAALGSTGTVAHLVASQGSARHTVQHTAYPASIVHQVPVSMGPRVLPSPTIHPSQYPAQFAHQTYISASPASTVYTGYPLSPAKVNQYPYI

Turning to `CNC(=O)c1c[nH]c2ncc(-c3ccc(OCCN4CCC(c5ccccc5)C4)cc3)nc12` (racemic) [compound 21, C-604], the IC50 in data set [1] stood at 9 ± 7.7 nM; on STK17A, 154 nM; on GSK3B it was 283 nM; on HIPK2, 43 nM. In addition, the solubility in the data set “physchem” is 72 µM. Also, the microsomal CLint in “in vitro” came out at 13 µL/min/mg.
